Assay [1] deals with T1, OGA (Homo sapiens, UniProt O60502).
T1 construct: endogenous in cells; host or cells: HEK293 cells inducible for P301L mutant human Tau (2N4R)
T1 sequence (O60502 1-916): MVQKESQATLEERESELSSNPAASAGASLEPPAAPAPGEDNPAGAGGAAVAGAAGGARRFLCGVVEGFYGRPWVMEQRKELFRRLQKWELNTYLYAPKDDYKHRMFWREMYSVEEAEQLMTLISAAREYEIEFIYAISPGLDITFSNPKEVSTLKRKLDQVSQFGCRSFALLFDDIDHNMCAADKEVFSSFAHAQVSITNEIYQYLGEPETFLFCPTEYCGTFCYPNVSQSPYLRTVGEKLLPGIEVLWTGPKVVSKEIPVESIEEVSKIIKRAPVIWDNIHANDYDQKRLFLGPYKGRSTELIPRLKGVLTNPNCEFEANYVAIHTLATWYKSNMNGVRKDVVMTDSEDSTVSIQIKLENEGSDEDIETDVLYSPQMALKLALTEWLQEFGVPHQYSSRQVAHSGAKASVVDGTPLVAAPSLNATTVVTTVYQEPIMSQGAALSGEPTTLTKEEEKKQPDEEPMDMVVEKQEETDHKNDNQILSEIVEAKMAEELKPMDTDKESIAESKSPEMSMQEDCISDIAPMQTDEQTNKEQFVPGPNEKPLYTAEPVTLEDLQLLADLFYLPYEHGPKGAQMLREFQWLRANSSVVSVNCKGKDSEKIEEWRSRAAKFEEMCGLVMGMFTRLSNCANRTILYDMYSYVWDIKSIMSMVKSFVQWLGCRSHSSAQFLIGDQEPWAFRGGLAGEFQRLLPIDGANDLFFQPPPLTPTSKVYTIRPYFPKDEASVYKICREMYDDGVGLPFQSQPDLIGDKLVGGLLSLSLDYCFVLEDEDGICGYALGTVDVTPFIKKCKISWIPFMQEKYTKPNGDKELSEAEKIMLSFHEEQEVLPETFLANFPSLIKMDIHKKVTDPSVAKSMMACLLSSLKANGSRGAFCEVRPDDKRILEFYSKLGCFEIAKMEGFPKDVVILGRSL
As to the kind of experiment: OGA cellular assay (ICC detection of O-GlcNAcylated proteins in HEK293 cells inducible for P301L mutant human Tau). The note with it: for Emax: HEK293, HEK293 cells inducible for P301L mutant human Tau; for EC50: 6 hours incubation, read-out: Cellular hOGA, pEC50 (converted). It is filed as cell-based. How it is done:
HEK293 cells inducible for P301L mutant human Tau (isoform 2N4R) were established at Janssen. Thiamet-G was used for both plate validation (high control) and as reference compound (reference EC50 assay validation). OGA inhibition is evaluated through the immunocytochemical (ICC) detection of O-GlcNAcylated proteins by the use of a monoclonal antibody (CTD110.6; Cell Signaling, #9875) detecting 0-GlcNAcylated residues as previously described (Dorfmueller et al. 2010 Chemistry & biology, 17:1250). Inhibition of OGA will result in an increase of O-GlcNAcylated protein levels resulting in an increased signal in the experiment. Cell nuclei are stained with Hoechst to give a cell culture quality control and a rough estimate of immediate compounds toxicity, if any. ICC pictures are imaged with a Perkin Elmer Opera Phenix plate microscope and quantified with the provided software Perkin Elmer Harmony 4.1.
Cells were propagated in DMEM high Glucose (Sigma, #D5796) following standard procedures. 2 days before the cell assay cells are split, counted and seeded in Poly-D-Lysine (PDL) coated 96-wells (Greiner, #655946) plate at a cell density of 12,000 cells per cm^2 (4,000 cells per well) in 100 μl of Assay Medium (Low Glucose medium is used to reduce basal levels of GlcNAcylation) (Park et al. 2014 The Journal of biological chemistry 289:13519). At the day of compound test medium from assay plates was removed and replenished with 90 μl of fresh Assay Medium. 10 μl of compounds at a 10 fold final concentration were added to the wells. Plates were centrifuged shortly before incubation in the cell incubator for 6 hours. DMSO concentration was set to 0.2%. Medium is discarded by applying vacuum. For staining of cells medium was removed and cells washed once with 100 μl D-PBS (Sigma, #D8537). From next step onwards unless other stated assay volume was always 50 μl and incubation was performed without agitation and at room temperature. Cells were fixed in 50 μl of a 4% paraformaldehyde (PFA, Alpha aesar, #043368) PBS solution for 15 minutes at room temperature. […] Before analysis samples were washed 2 times manually for 5 minutes in ICC base buffer.
Imaging is performed using Perkin Elmer Phenix Opera using a water 20× objective and recording 9 fields per well. Intensity readout at 488 nm is used as a measure of O-GlcNAcylation level of total proteins in wells. To assess potential toxicity of compounds nuclei were counted using the Hoechst staining. IC50-values are calculated using parametric non-linear regression model fitting. As a maximum inhibition Thiamet G at a 200 uM concentration is present on each plate. In addition, a concentration response of Thiamet G is calculated on each plate.

Assay [2] deals with T2, recombinant human Meningioma Expressed Antigen 5 (MGEA5), also referred to as O-GlcNAcase (OGA) (Homo sapiens, UniProt O60502).
T2 construct: Full length OGA enzyme was purchased at OnGene (cat #TP322411); purchased OnGene (so in the source)
T2 sequence (O60502 1-916): T1 sequence (O60502 1-916)
In words: OGA biochemical assay (inhibition of FM-GlcNAc hydrolysis, fluorescence). The note with it: for Emax / Enzymatic Emax (%): maximal effect; for Emax: read-out: Enzymatic Emax (%); for IC50: read-out: Enzymatic hOGA, pIC50 (converted). In a few lines:
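Full-length recombinant OGA (2 nM) pre-incubated with compound 60 min at room temperature, then FM-GlcNAc (100 µM final) added in citrate/phosphate buffer pH 7.2 with 0.005% Tween-20. After 6 h at room temperature, stopped with carbonate pH 11.0; fluorescein read at 485/538 nm; IC50 and Hill coefficient from curve fit.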

The mark [3] stands for this setting: maximal effect, Thiamet G 200 uM as maximum.
[4] abbreviates: HEK293 cells inducible for P301L mutant human Tau.

Data on 23 compounds can be found in patent US20210300943A1, “OGA INHIBITOR COMPOUNDS” (Janssen Pharmaceutica NV, priority 2018, published 2021).

Bounds are passed on as bounds.

In general, Emax refers to the maximal effect, on the per cent scale that the assay sets. For `Cc1cc(C2CCCN(C(C)c3nc4c(cc3F)OCCO4)C2)cc(C)n1` (centres unmarked) [Product 151], the Emax in assay [1] (setting [3]) was 85%. Also, in assay [1] (setting [4]), the EC50 is 6.92 nM. Moreover, in assay [2], the Emax is 102% and the IC50 was 6.31 nM.
With `Cc1cc(NCC2CCCN(C(C)c3ccc4c(n3)OCCO4)C2)cc(C(F)(F)F)n1` (single isomer, unassigned) [Product 33], the Emax in assay [1] (setting [3]) was found to be 83%. For the same compound, the EC50 in assay [1] (setting [4]) was 31.6 nM. Moreover, in assay [2], the Emax was 102% and the IC50 was 2.51 nM.
In the case of `COc1cc(CN[C@H]2CCCN(C(C)c3ccc4c(n3)OCCO4)C2)cc(C)n1` (some centres unmarked) [Product 198], the Emax in assay [1] (setting [3]) stood at 82%. Further, the EC50 in assay [1] (setting [4]) is 398 nM. In assay [2], the Emax worked out at 94% and the IC50 is 39.8 nM.
For `Cc1cc(CO[C@H]2CCCN(C(C)c3ccc4c(n3)OCCO4)C2)cc(C)n1` (single isomer, unassigned) [Product 167], in assay [1] (setting [4]), the EC50 was over 1000 nM. For the same compound, the “Cellular Emax (%)” value in assay [1] (HEK293 cells inducible for P301L mutant human Tau, maximal effect, Thiamet G 200 uM as maximum) was 26%. Further, in assay [2], the “Enzymatic Emax (%)” value came to 97% and the IC50 was 158 nM.
Take `Cc1cc(OC[C@H]2CCCN(C(C)c3cc4c(cc3F)NCCO4)C2)cc(C)n1` (some centres unmarked) [Product 191]: the Emax in assay [1] (setting [3]) came to 81%; in assay [2] it was 95%. The EC50 in assay [1] (setting [4]) is 15.8 nM. In assay [2], the IC50 was 5.01 nM.
As for `Cc1cc([C@@H]2CCCN([C@H](C)c3ccc4c(n3)OCCO4)C2)cc(C)n1` (single isomer, unassigned) [Product 160], the Emax was 5% in assay [1] (setting [3]) and 89% in assay [2]. The EC50 in assay [1] (setting [4]) is over 1000 nM. Also, the IC50 in assay [2] was 2000 nM.
Take `COc1cc(NC[C@H]2CCCN(C(C)c3ccc4c(n3)OCCO4)C2)cc(C)n1` (mixture of isomers) [Product 24]: the Emax in assay [1] (setting [3]) came to 69%; in assay [2] it was 102%. Moreover, in assay [1] (setting [4]), the EC50 was 7.94 nM. The IC50 in assay [2] was 7.94 nM.
Regarding `Cc1cc(OC2CCCN(C(C)c3ccc4c(n3)OCCO4)C2)cc(C(F)(F)F)n1` (centres unmarked) [Product 138], in assay [1] (setting [3]), the Emax turned out to be 16%. Moreover, in assay [1] (setting [4]), the EC50 was over 1000 nM. Further, in assay [2], the Emax was 101% and the IC50 was 126 nM.
For `Cc1cc(OC[C@H]2CCCN([C@H](C)c3nc4c(cc3F)OCCO4)C2)cc(C)n1` [Product 154], in that order: 86%, 126 nM, 101% and 50.1 nM.
Regarding `Cc1cc(C[C@H]2CCCN(C(C)c3cnc4c(c3)OCCN4)C2)cc(C)n1` (mixture of isomers) [Product 50], the Emax in assay [1] (setting [3]) amounted to 85%; in assay [2] it was 103%. For the same compound, the EC50 in assay [1] (setting [4]) is 39.8 nM. Moreover, in assay [2], the IC50 was 10 nM.
As to `Cc1cc(OC2CCCN(C(C)c3ccc4c(n3)OCCO4)C2)cc(C)n1` (centres unmarked) [Product 136], the Emax in assay [1] (setting [3]) was found to be 60%; in assay [2], 101%. For the same compound, the EC50 in assay [1] (setting [4]) was 631 nM. Further, the IC50 in assay [2] was 3.98 nM.
For `Cc1cc(C2CCCN(C(C)c3cc4c(cc3F)NCCO4)C2)cc(C)n1` (centres unmarked) [Product 190], in that order: 82%, 101%, 50.1 nM and 10 nM.
For `Cc1cc(C2CCCN(C(C)c3nc4c(cc3F)CCO4)C2)cc(C)n1` (centres unmarked) [Product 148], in that order: 78%, 98%, 10 nM and 15.8 nM.
Regarding `Cc1cc(C[C@H]2CCCN(C(C)c3cnc4c(c3)OCCO4)C2)cc(C)n1` (single isomer, unassigned) [Product 132], the Emax in assay [1] (setting [3]) came to 77%; in assay [2] it was 103%. For the same compound, the EC50 in assay [1] (setting [4]) was 79.4 nM. In addition, in assay [2], the IC50 was 5.01 nM.
As for `Cc1cc([C@H]2CCCN([C@@H](C)c3ccc4c(n3)OCCO4)C2)cc(C)n1` (single isomer, unassigned) [Product 159], in assay [1] (setting [3]), the Emax worked out at 0%. The EC50 in assay [1] (setting [4]) was over 1000 nM. Moreover, in assay [2], the Emax was 91% and the IC50 is 1260 nM.
For `Cc1cc(C[C@H]2CCCN(C(C)c3ccc4c(n3)OCCO4)C2)cc(C)n1` (mixture of isomers) [Product 44], in that order: 91%, 20 nM, 101% and 3.16 nM.
For the compound `Cc1cc(CC2(F)CCCN([C@@H](C)c3ccc4c(n3)OCCO4)C2)cc(C)n1` (single isomer, unassigned) [Product 177], in assay [1] (setting [3]), the Emax was -8%. Also, the EC50 in assay [1] (setting [4]) is over 1000 nM. For the same compound, in assay [2], the Emax is 81% and the IC50 is 2510 nM.
Take `CC(c1ccc2c(n1)OCCO2)N1CCC[C@H](NCc2ccc(F)cc2)C1` (some centres unmarked) [Product 197]: the Emax in assay [1] (setting [3]) was determined as 66%; in assay [2] it was 98%. Further, the EC50 in assay [1] (setting [4]) is 631 nM. In assay [2], the IC50 is 398 nM.
With `COc1cc(OC2CCCN(C(C)c3ccc4c(n3)OCCO4)C2)cc(C)n1` (centres unmarked) [Product 18], the Emax in assay [1] (setting [3]) was 57%. Also, the EC50 in assay [1] (setting [4]) is 794 nM. Besides, in assay [2], the Emax was 100% and the IC50 was 50.1 nM.
For `Cc1cc(C2CCCN(C(C)c3ccc4c(n3)OCCO4)C2)cc(C(F)(F)F)n1` (centres unmarked) [Product 8], in that order: 86%, 200 nM, 100% and 15.8 nM.
Consider `Cc1cc(C2CCCN(C(C)c3ccc4c(n3)OCCO4)C2)cc(C(F)F)n1` (centres unmarked) [Product 188], for which the Emax in assay [1] (setting [3]) worked out at 79%. Besides, the EC50 in assay [1] (setting [4]) was 100 nM. In addition, in assay [2], the Emax was 102% and the IC50 was 10 nM.
Consider `Cc1cc(C[C@H]2CCCN(C(C)c3cnc4c(c3)OCCN4C)C2)cc(C)n1` (mixture of isomers) [Product 56], for which the Emax in assay [1] (setting [3]) came to 78%. The EC50 in assay [1] (setting [4]) was 316 nM. Further, in assay [2], the Emax came out at 102% and the IC50 was 15.8 nM.
Consider `COc1cc(NC[C@H]2CCCN(C(C)c3ccc4c(n3)OCCO4)C2)cc(C)n1` (single isomer, unassigned) [Product 26], for which the Emax in assay [1] (setting [3]) was 85%. Besides, the EC50 in assay [1] (setting [4]) is 5.01 nM. In assay [2], the “Enzymatic Emax (%)” value was determined as 101% and the IC50 is 2.51 nM.
